Measurements reported in ChEMBL document CHEMBL1139406, “Anti-HIV-1 activity of phloroglucinol derivative, 6,6'-bieckol, from Ecklonia cava” (Bioorg Med Chem, 2008).
Activity calls are given as the source filed them. The calls are words filed in the database; no cut-off is given here.

Tests used:
[1] = Cytotoxicity against human CEM-SS cells after 72 hrs by MTT assay; format: cell-based
[2] = tested on: Human immunodeficiency virus 1; test: Antiviral activity against HIV1 3B in human CEM-SS cells assessed as inhibition of viral-induced lytic effect after 7 days by MTT assay; format: functional, organism-based; details: Human immunodeficiency virus 1, 3B, 168 h
[3] = tested on: Human immunodeficiency virus 1; test: Antiviral activity against HIV1 3B in human H9 cells assessed as inhibition of p55 gag protein production after 4 days by Western blot analysis; format: functional, organism-based
[4] = tested on: Human immunodeficiency virus 1; test: Antiviral activity against HIV1 3B in human C8166 cells assessed as inhibition of viral-induced syncytia formation at 25 uM after 72 hrs; format: functional; design: scale not given: the % may be the effect or the level left
[5] = Therapeutic index, ratio of CC50 for human CEM-SS cells to IC50 for HIV1 induced lytic effect; format: cell-based; details: read-out: TI
[6] = tested on: Human immunodeficiency virus 1; test: Antiviral activity against HIV1 3B in human CEM-SS cells assessed as inhibition of viral-induced lytic effect at 25 uM after 7 days by MTT assay; format: functional; design: scale not given: the % may be the effect or the level left
CEM-SS = test: Cytotoxicity against human CEM-SS cells up to 500 by MTT assay; format: cell-based
[7] = tested on: Human immunodeficiency virus 1; test: Antiviral activity against HIV1 3B in human C8166 cells assessed as inhibition of viral-induced syncytia formation after 72 hrs; format: functional, organism-based; details: Human immunodeficiency virus 1, 3B, C8166, 72 h
[8] = tested on: Human immunodeficiency virus 1; test: Antiviral activity against HIV1 3B in human C8166 co-cultivated with H9 cells assessed as inhibition of cell-virus fusion after 72 hrs; format: functional, organism-based
[9] = target: Human immunodeficiency virus type 1 reverse transcriptase (Human immunodeficiency virus 1) (UniProt Q72547); test: Inhibition of HIV1 3B reverse transcriptase activity at 1 uM
[10] = target: Human immunodeficiency virus type 1 reverse transcriptase (Human immunodeficiency virus 1, UniProt Q72547); test: Inhibition of HIV1 3B reverse transcriptase activity
[11] = tested on: Human immunodeficiency virus 1; test: Antiviral activity against HIV1 3B in human C8166 co-cultivated with H9 cells assessed as inhibition of cell-cell fusion after 72 hrs; format: functional, organism-based
[12] = tested on: Human immunodeficiency virus 1; test: Antiviral activity against HIV1 3B in human H9 cells assessed as inhibition of p24 gag protein production after 4 days by Western blot analysis; format: functional, organism-based
[13] = tested on: Human immunodeficiency virus 1; test: Antiviral activity against HIV1 3B in human H9 cells assessed as inhibition of p24 antigen production at 10 uM by ELISA; format: functional; details: Human immunodeficiency virus 1, 3B
[14] = target: Protease (Human immunodeficiency virus 1) (UniProt Q9YQ12); test: (§1) Inhibition of HIV1 3B recombinant protease
Sequence of Protease (Human immunodeficiency virus 1) (Q9YQ12 as listed by the source): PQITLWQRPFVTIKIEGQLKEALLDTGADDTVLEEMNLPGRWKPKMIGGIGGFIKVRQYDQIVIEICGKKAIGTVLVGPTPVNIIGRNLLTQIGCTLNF

[15] = tested on: Human immunodeficiency virus 1; test: Antiviral activity against HIV1 3B in human H9 cells assessed as inhibition of p24 antigen production by ELISA; format: functional, organism-based; details: Human immunodeficiency virus 1, 3B
[16] = tested on: Human immunodeficiency virus 1; test: Antiviral activity against HIV13B in human C8166 co-cultivated with H9 cells assessed as inhibition of viral-induced syncytia formation at 25 uM after 72 hrs; format: functional, 3B; design: scale not given: the % may be the effect or the level left
[17] = tested on: Human immunodeficiency virus 1; test: Antiviral activity against HIV1 3B in human H9 cells assessed as inhibition of p24 antigen production at 25 uM by ELISA; format: functional, organism-based
[18] = tested on: Human immunodeficiency virus 1; test: Antiviral activity against HIV1 3B in human H9 cells assessed as inhibition of p41 gag protein production after 4 days by Western blot analysis; format: functional, organism-based
[19] = target: Human immunodeficiency virus type 1 reverse transcriptase (Human immunodeficiency virus 1) (UniProt Q72547); test: Inhibition of HIV1 3B reverse transcriptase activity at 10 uM
Protease = Protease (Human immunodeficiency virus 1, UniProt Q9YQ12); test: as §1
Sequence of Protease (Q9YQ12 whole entry): as the sequence (Q9YQ12 as listed by the source) above

[20] = tested on: Human immunodeficiency virus 1; test: Antiviral activity against HIV1 3B in human H9 cells assessed as inhibition of p24 antigen production at 5 uM by ELISA; format: functional, organism-based

SMILES: Oc1cc(O)cc(Oc2c(O)cc(O)c3c2Oc2c(O)cc(O)c(-c4c(O)cc(O)c5c4Oc4c(O)cc(O)c(Oc6cc(O)cc(O)c6)c4O5)c2O3)c1
- CC50 at 72 h [1]: 484 µM
- EC50 [2]: 1.23 µM
- Activity [3]: Active
- Activity [4]: 88%
- selectivity ratio [5]: 393
- Activity [6]: >96%
- Activity (CEM-SS): Non-toxic
- EC50 [7]: 1.72 µM
- Activity [8]: Active
- inhibition [9]: 50.5%
- EC50 [10]: 1.07 µM
- Activity [11]: Active
- Activity [12]: Dose-dependent effect
- inhibition at 10 µM [13]: 90%
- Activity [14]: inactive
- EC50 [15]: 1.26 µM
- Activity [16]: 80%
- Activity [17]: Active
- Activity [18]: Active
- inhibition [19]: 96.3%

SMILES: Oc1cc(O)cc(Oc2c(O)cc(O)c3c2Oc2c(cc(O)c(-c4c(O)cc5c(c4O)Oc4c(Oc6cc(O)cc(O)c6)c(O)cc(O)c4O5)c2O)O3)c1
- EC50 [10]: 0.51 µM
- IC50 (Protease): 81.5 µM

SMILES: Cc1cn([C@H]2C[C@H](N=[N+]=[N-])[C@@H](CO)O2)c(=O)[nH]c1=O
- Activity [20]: Active
